# Experiments:
# [1] = tested on: barnyardgrass; assay: Test C preemergence; format: in vivo, Echinochloa crusgalli; settings: 0 to 100 scale (0 no effect, 100 complete control); for Plant response rating, Barnyardgrass: Preemergence, 500 g ai/ha, visual rating after 10 days; for Barnyardgrass plant response rating: Test C, preemergence, 125 g ai/ha
# Summary of the method: (§1)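 Soil-applied (pre) and foliar (post, 1–2 leaf, 2–10 cm) sprays; surfactant-containing non-phytotoxic solvent vehicle; loam/sand substrate. Readout: visual % control at 10 d, greenhouse, versus untreated.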
# [2] = tested on: blackgrass; assay: Test C preemergence; format: in vivo, Alopecurus myosuroides; settings: 0 to 100 scale (0 no effect, 100 complete control); for Plant response rating, Blackgrass: Preemergence, 500 g ai/ha, visual rating after 10 days; for Blackgrass plant response rating: Test C, preemergence, 125 g ai/ha
# Summary of the method: as §1
# [3] = tested on: corn; assay: Test C preemergence; format: in vivo, Zea mays; settings: 0 to 100 scale (0 no effect, 100 complete control); for Plant response rating, Corn: Preemergence, 500 g ai/ha, visual rating after 10 days; for Corn plant response rating: Test C, preemergence, 125 g ai/ha
# Summary of the method: as §1
# [4] = tested on: green foxtail; assay: Test C preemergence; format: in vivo, Setaria viridis; settings: 0 to 100 scale (0 no effect, 100 complete control); for Plant response rating, Foxtail, Green: Preemergence, 500 g ai/ha, visual rating after 10 days; for Foxtail, Green plant response rating: Test C, preemergence, 125 g ai/ha
# Summary of the method: as §1
# [5] = tested on: kochia; assay: Test C preemergence; format: in vivo, Bassia scoparia; settings: 0 to 100 scale (0 no effect, 100 complete control); for Plant response rating, Kochia: Preemergence, 500 g ai/ha, visual rating after 10 days; for Kochia plant response rating: Test C, preemergence, 125 g ai/ha
# Summary of the method: as §1
# [6] = tested on: oat, wild; assay: Test C preemergence; format: in vivo, Avena fatua; settings: 0 to 100 scale (0 no effect, 100 complete control); for Plant response rating, Oat, Wild: Preemergence, 500 g ai/ha, visual rating after 10 days; for Oat, Wild plant response rating: Test C, preemergence, 125 g ai/ha
# Summary of the method: as §1
# [7] = tested on: pigweed, palmer; assay: Test C preemergence; format: in vivo, Amaranthus palmeri; settings: 0 to 100 scale (0 no effect, 100 complete control); for Plant response rating, Pigweed, Palmer: Preemergence, 500 g ai/ha, visual rating after 10 days; for Pigweed, Palmer plant response rating: Test C, preemergence, 125 g ai/ha
# Summary of the method: as §1
# [8] = tested on: ragweed; assay: Test C preemergence; format: in vivo, Ambrosia artemisiifolia; settings: 0 to 100 scale (0 no effect, 100 complete control); for Plant response rating, Ragweed: Preemergence, 500 g ai/ha, visual rating after 10 days; for Ragweed plant response rating: Test C, preemergence, 125 g ai/ha
# Summary of the method: as §1
# [9] = tested on: ryegrass, Italian; assay: Test C preemergence; format: in vivo, Lolium multiflorum; settings: 0 to 100 scale (0 no effect, 100 complete control); for Plant response rating, Ryegrass, Italian: Preemergence, 500 g ai/ha, visual rating after 10 days; for Ryegrass, Italian plant response rating: Test C, preemergence, 125 g ai/ha
# Summary of the method: as §1
# [10] = tested on: soybean; assay: Test C preemergence; format: in vivo, Glycine max; settings: 0 to 100 scale (0 no effect, 100 complete control); for Plant response rating, Soybean: Preemergence, 500 g ai/ha, visual rating after 10 days; for Soybean plant response rating: Test C, preemergence, 125 g ai/ha
# Summary of the method: as §1
# [11] = tested on: wheat; assay: Test C preemergence; format: in vivo, Triticum aestivum; settings: 0 to 100 scale (0 no effect, 100 complete control); for Plant response rating, Wheat: Preemergence, 500 g ai/ha, visual rating after 10 days; for Wheat plant response rating: Test C, preemergence, 125 g ai/ha
# Summary of the method: as §1
# [12] = tested on: barnyardgrass; assay: Test C postemergence; format: in vivo, Echinochloa crusgalli; settings: 10 days
# Summary of the method: as §1
# [13] = tested on: blackgrass; assay: Test C postemergence; format: in vivo, Alopecurus myosuroides; settings: 10 days
# Summary of the method: as §1
# [14] = tested on: corn; assay: Test C postemergence; format: in vivo, Zea mays; settings: 10 days
# Summary of the method: as §1
# [15] = tested on: kochia; assay: Test C postemergence; format: in vivo, Bassia scoparia; settings: 10 days
# Summary of the method: as §1
# [16] = tested on: oat, wild; assay: Test C postemergence; format: in vivo, Avena fatua; settings: 10 days
# Summary of the method: as §1
# [17] = tested on: pigweed, palmer; assay: Test C postemergence; format: in vivo, Amaranthus palmeri; settings: 10 days
# Summary of the method: as §1
# [18] = tested on: ragweed; assay: Test C postemergence; format: in vivo, Ambrosia artemisiifolia; settings: 10 days
# Summary of the method: as §1
# [19] = tested on: ryegrass, Italian; assay: Test C postemergence; format: in vivo, Lolium multiflorum; settings: 10 days
# Summary of the method: as §1
# [20] = tested on: soybean; assay: Test C postemergence; format: in vivo, Glycine max; settings: 10 days
# Summary of the method: as §1
# [21] = tested on: wheat; assay: Test C postemergence; format: in vivo, Triticum aestivum; settings: 10 days
# Summary of the method: as §1
# [22] = tested on: galium; assay: Test C postemergence; format: in vivo, Galium aparine; settings: 10 days
# Summary of the method: as §1
# [23] = tested on: horseweed; assay: Test C postemergence; format: in vivo, Erigeron canadensis; settings: 10 days
# Summary of the method: as §1
# [24] = tested on: barnyardgrass; assay: Test D flooded paddy test; format: in vivo, Echinochloa crus-galli; settings: 250 g ai/ha, applied to paddy water, visual rating after 13 to 14 days, scale 0 to 100 (0 no effect, 100 complete control)
# Description: (§2) Plant species in the flooded paddy test selected from barnyardgrass (Echinochloa crus-galli), ducksalad (Heteranthera limosa), rice (Oryza sativa), and sedge, umbrella (small-flower umbrella sedge, Cyperus difformis) were grown to the 2-leaf stage for testing. At time of treatment, test pots were flooded to 3 cm above the soil surface, treated by application of test compounds directly to the paddy water, and then maintained at that water depth for the duration of the test. Treated plants and controls were maintained in a greenhouse for 13 to 14 days, after which time all species were compared to controls and visually evaluated. Plant response ratings, summarized in Table D, are based on a scale of 0 to 100 where 0 is no effect and 100 is complete control. A dash (-) response means no test result.
# [25] = tested on: ducksalad; assay: Test D flooded paddy test; format: in vivo, Heteranthera limosa; settings: 250 g ai/ha, applied to paddy water, visual rating after 13 to 14 days, scale 0 to 100 (0 no effect, 100 complete control)
# Description: as §2
# [26] = tested on: rice; assay: Test D flooded paddy test; format: in vivo, Oryza sativa; settings: 250 g ai/ha, applied to paddy water, visual rating after 13 to 14 days, scale 0 to 100 (0 no effect, 100 complete control)
# Description: as §2
# [27] = tested on: sedge, umbrella; assay: Test D flooded paddy test; format: in vivo, Cyperus difformis; settings: 250 g ai/ha, applied to paddy water, visual rating after 13 to 14 days, scale 0 to 100 (0 no effect, 100 complete control)
# Description: as §2
# [28] = 125 g ai/ha, postemergence, 0 to 100 scale, 0 no effect, 100 complete control
# [29] = Postemergence, 500 g ai/ha, visual 0 to 100 scale (0 no effect, 100 complete control)
smiles,measurement,setting,value
COc1ccc(-n2cnc(C(C)(C)O)n2)cc1C(=O)N1C[C@H](C)Oc2c(Cl)cccc21 [Compound 254],"Plant response rating, Barnyardgrass",[1],100
same,Barnyardgrass plant response rating,[1],70
same,"Plant response rating, Blackgrass",[2],80
same,Blackgrass plant response rating,[2],40
same,"Plant response rating, Corn",[3],50
same,Corn plant response rating,[3],50
same,"Plant response rating, Foxtail, Green",[4],100
same,"Foxtail, Green plant response rating",[4],100
same,"Plant response rating, Kochia",[5],90
same,Kochia plant response rating,[5],90
same,"Plant response rating, Oat, Wild",[6],90
same,"Oat, Wild plant response rating",[6],90
same,"Plant response rating, Pigweed, Palmer",[7],100
same,"Pigweed, Palmer plant response rating",[7],100
same,"Plant response rating, Ragweed",[8],90
same,Ragweed plant response rating,[8],80
same,"Plant response rating, Ryegrass, Italian",[9],90
same,"Ryegrass, Italian plant response rating",[9],90
same,"Plant response rating, Soybean",[10],100
same,Soybean plant response rating,[10],100
same,"Plant response rating, Wheat",[11],90
same,Wheat plant response rating,[11],70
same,"Plant response rating, Barnyardgrass",[12]; [28],50
same,"Plant response rating, Barnyardgrass",[12]; [29],80
same,"Plant response rating, Blackgrass",[13]; [28],80
same,"Plant response rating, Blackgrass",[13]; [29],90
same,"Plant response rating, Corn",[14]; [28],80
same,"Plant response rating, Corn",[14]; [29],90
same,"Plant response rating, Kochia",[15]; [28],80
same,"Plant response rating, Kochia",[15]; [29],90
same,"Plant response rating, Oat, Wild",[16]; [28],80
same,"Plant response rating, Oat, Wild",[16]; [29],90
same,"Plant response rating, Pigweed, Palmer",[17]; [28],90
same,"Plant response rating, Pigweed, Palmer",[17]; [29],100
same,"Plant response rating, Ragweed",[18]; [28],90
same,"Plant response rating, Ragweed",[18]; [29],100
same,"Plant response rating, Ryegrass, Italian",[19]; [28],70
same,"Plant response rating, Ryegrass, Italian",[19]; [29],80
same,"Plant response rating, Soybean",[20]; [28],100
same,"Plant response rating, Soybean",[20]; [29],100
same,"Plant response rating, Wheat",[21]; [28],50
same,"Plant response rating, Wheat",[21]; [29],80
same,"Plant response rating, Galium",[22]; [28],100
same,"Plant response rating, Galium",[22]; [29],100
same,"Plant response rating, Horseweed",[23]; [28],30
same,"Plant response rating, Horseweed",[23]; [29],20
same,"Plant response rating, Barnyardgrass (Flood)",[24],25
same,"Plant response rating, Ducksalad (Flood)",[25],98
same,"Plant response rating, Rice (Flood)",[26],20
same,"Plant response rating, Sedge, Umbrella (Flood)",[27],98
Cc1ccc(-n2cnc(C(C)(C)O)n2)cc1C(=O)N1C[C@H](C)Oc2c(C)cccc21 [Compound 256],"Plant response rating, Barnyardgrass",[1],100
same,Barnyardgrass plant response rating,[1],100
same,"Plant response rating, Blackgrass",[2],90
same,Blackgrass plant response rating,[2],70
same,"Plant response rating, Corn",[3],90
same,Corn plant response rating,[3],50
same,"Plant response rating, Foxtail, Green",[4],100
same,"Foxtail, Green plant response rating",[4],100
same,"Plant response rating, Kochia",[5],90
same,Kochia plant response rating,[5],80
same,"Plant response rating, Oat, Wild",[6],90
same,"Oat, Wild plant response rating",[6],90
same,"Plant response rating, Pigweed, Palmer",[7],100
same,"Pigweed, Palmer plant response rating",[7],100
same,"Plant response rating, Ragweed",[8],90
same,Ragweed plant response rating,[8],70
same,"Plant response rating, Ryegrass, Italian",[9],100
same,"Ryegrass, Italian plant response rating",[9],90
same,"Plant response rating, Soybean",[10],90
same,Soybean plant response rating,[10],100
same,"Plant response rating, Wheat",[11],90
same,Wheat plant response rating,[11],80
same,"Plant response rating, Barnyardgrass",[12]; [28],60
same,"Plant response rating, Barnyardgrass",[12]; [29],90
same,"Plant response rating, Blackgrass",[13]; [28],90
same,"Plant response rating, Blackgrass",[13]; [29],90
same,"Plant response rating, Corn",[14]; [28],90
same,"Plant response rating, Corn",[14]; [29],90
same,"Plant response rating, Kochia",[15]; [28],60
same,"Plant response rating, Kochia",[15]; [29],80
same,"Plant response rating, Oat, Wild",[16]; [28],90
same,"Plant response rating, Oat, Wild",[16]; [29],90
same,"Plant response rating, Pigweed, Palmer",[17]; [28],80
same,"Plant response rating, Pigweed, Palmer",[17]; [29],100
same,"Plant response rating, Ragweed",[18]; [28],70
same,"Plant response rating, Ragweed",[18]; [29],80
same,"Plant response rating, Ryegrass, Italian",[19]; [28],90
same,"Plant response rating, Ryegrass, Italian",[19]; [29],100
same,"Plant response rating, Soybean",[20]; [28],100
same,"Plant response rating, Soybean",[20]; [29],100
same,"Plant response rating, Wheat",[21]; [28],80
same,"Plant response rating, Wheat",[21]; [29],90
same,"Plant response rating, Galium",[22]; [28],100
same,"Plant response rating, Galium",[22]; [29],100
same,"Plant response rating, Horseweed",[23]; [28],30
same,"Plant response rating, Horseweed",[23]; [29],40
same,"Plant response rating, Barnyardgrass (Flood)",[24],45
same,"Plant response rating, Ducksalad (Flood)",[25],98
same,"Plant response rating, Rice (Flood)",[26],35
same,"Plant response rating, Sedge, Umbrella (Flood)",[27],98

# From patent US20260262643A1, “HERBICIDAL BENZOXAZINES” (FMC CORPORATION, priority 2022, published 2026)
